This assay deals with T1, recombinant human secreted phospholipase A2 (Homo sapiens, UniProt P14555).
T1 sequence (P14555 21-144): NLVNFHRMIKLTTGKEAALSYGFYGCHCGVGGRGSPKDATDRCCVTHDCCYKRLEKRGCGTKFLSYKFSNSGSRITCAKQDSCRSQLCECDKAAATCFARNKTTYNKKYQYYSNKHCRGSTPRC
Nature of the assay: chromogenic assay for inhibitors of recombinant human secreted phospholipase A2. Format: biochemical. From the text: The following chromogenic assay procedure was used to identify and evaluate inhibitors of recombinant human secreted phospholipase A2. The assay described herein has been adapted for high volume screening using 96 well microtiter plates. A general description of this assay method is found in the article, “Analysis of Human Synovial Fluid Phospholipase A2 on Short Chain Phosphatidylcholine-Mixed Micelles: Development of a Spectrophotometric Assay Suitable for a Microtiterplate Reader”, by Laure J. Reynolds, Lori L. Hughes, and Edward A Dennis, Analytical Biochemistry, 204, pp. 190-197, 1992 (the disclosure of which is incorporated herein by reference): […]
A measured volume of racemic dipheptanoyl thio PC supplied in chloroform at a concentration of 100 mg/ml is taken to dryness and redissolved in 10 millimolar TRITON X-100™ nonionic detergent aqueous solution. […]
5. Read absorbance of wells at 405 nanometers with an automatic plate reader.
All compounds were tested in triplicate. […] Compounds initially found to be active were reassayed to confirm their activity and, if sufficiently active, IC50 values were determined. […] In all cases, % inhibition measured at 405 nanometers generated by enzyme reactions containing inhibitors relative to the uninhibited control reactions was determined. […] IC50 were determined by plotting log concentration versus inhibition values in the range from 10-90% inhibition.

SMILES strings stand for the structures.

Usually IC50 stands for the concentration that inhibits the measured activity by half.

As for `CCc1c(/C(=N/O)C(N)=O)c2c(OCC(=O)O)cccc2n1Cc1ccccc1` [Example 1], the “activity in inhibiting sPLA2 (in words)” value is “highly active”. For the setting “diheptanoyl thio-PC substrate, pH 7.5, 40° C. for 30 minutes, absorbance at 405 nanometers, read-out: Inhibition of human secreted PLA2 IC50 ± mean deviation (3-4 tests)”, the IC50 was 49 nM.

The values above are taken from patent US6391908B1, “Oxime amide indole type sPLA2 inhibitors” (Eli Lilly and Company, priority 1998, dated 2002).
